In patent publication US11744830B2, “Ameliorative agent for cytokine release syndrome and so on” (TORII PHARMACEUTICAL CO., LTD., priority 2018, dated 2023):
Where a name gives a salt, the structure may show the parent alone.

Key:
[1] = tested on: IFN-γ production; test: CRS toxicity evaluation system using CAR-T cells: IFN-γ; assay type: cell-based; details: Homo sapiens, Monocyte, target cells and monocytes, 72 hours
Description: (§1) The supernatants were collected at 72 hours after the initiation of culture, and various cytokines in each supernatant were measured by FACS multiplex assay.

[2] = tested on: IL-8 production; test: CRS toxicity evaluation system using CAR-T cells: IL-8; assay type: cell-based, human; details: for IC50: Homo sapiens, Monocyte, CAR-T cells, target cells and monocytes, 72 hours
Description: as §1

[3] = tested on: IL-6 production from PBMCs; test: LPS stimulation-induced IL-6 production in PBMCs; assay type: cell-based; details: Homo sapiens, PBMC, 72 h, LPS 3 ng/mL, 3 days
Description: (§2) Cryopreserved PBMCs were quickly thawed in a 37° C. thermostat and added to a tube containing medium. After centrifugation (at room temperature at 300 g for 10 minutes) to remove the supernatant, the cells were suspended again in the medium (10 mL), followed by counting the number of viable cells. After centrifugation (at room temperature at 300 g for 10 minutes) to remove the supernatant, the medium was added to suspend the cells at 1×10^6 cells/mL. This cell suspension was seeded in a 96-well plate in a volume of 100 μL/well (1×10^5 cells/well). […] The cells were cultured in a CO2 incubator for 3 days to collect the culture supernatants.
The collected culture supernatants were quantified for IL-6 using Human IL-6 DuoSet ELISA.

[4] = tested on: IFN-γ production from CD8^+ T cells; test: T-cell stimulation bead-induced IFN-γ production in CD8^+ T cells; assay type: cell-based, human; details: CD3/CD28 stimulation, 3 days
Description: (§3) Cryopreserved PBMCs were quickly thawed in a 37° C. thermostat and added to a tube containing medium. After centrifugation (at room temperature at 300 g for 10 minutes) to remove the supernatant, the cells were suspended in the medium, a portion of which was then mixed with a trypan blue solution to count the number of viable cells. The cell suspension was centrifuged (at room temperature at 300 g for 10 minutes) to remove the supernatant, followed by addition of MACS Buffer in a volume of 80 μL per 1×10^7 cells to suspend the cells, to which Human CD8 MicroBeads (20 μL) were further added. After being allowed to stand on ice for 15 minutes, the cell suspension was diluted with MACS Buffer (2 mL) and centrifuged (at room temperature at 300 g for 10 minutes) to remove the supernatant.
(§4) MACS Buffer (500 μL) was added to the tube, and the cells were suspended and then applied to a separatory column to separate CD8^+ cells. The CD8^+ cell fraction was diluted to 15 mL with the medium and then centrifuged (at room temperature at 300 g for 10 minutes). The supernatant was removed and the cells were suspended in the medium (1 mL), followed by counting the number of viable cells. The cell suspension adjusted with the medium to 1×10^6 cells/mL was seeded in a 96-well plate in a volume of 100 μL/well (1×10^5 cells/well) and allowed to stand in a CO2 incubator for 1 to 2 hours.
The collected culture supernatants were quantified for IFN-γ using Human IFN-γ DuoSet ELISA.

[5] = tested on: MCP-1 production; test: CRS toxicity evaluation system using CAR-T cells: MCP-1; assay type: cell-based, human; details: Homo sapiens, Monocyte; CAR-T cells, target cells and monocytes, 72 hours
Description: as §1

[6] = tested on: IFN-γ production in CD4^+ T cell-depleted PBMCs; test: T-cell stimulation bead- and LPS stimulation-induced CRS toxicity evaluation system in CD4^+ T cell-depleted PBMCs: IFN-γ; assay type: cell-based; details: Homo sapiens, 72 h, CD3/CD28 + LPS, 3 days
Description: Cryopreserved human PBMCs were quickly thawed in a 37° C. thermostat and added to a tube containing medium. After centrifugation (at room temperature at 300 g for 10 minutes) to remove the supernatant, the cells were suspended again in the medium (10 mL), followed by counting the number of viable cells. The remainder of the cell suspension was centrifuged (at room temperature at 300 g for 10 minutes) to remove the supernatant, followed by addition of MACS Buffer in a volume of 80 μL and Human CD4 MicroBeads in a volume of 20 μL per 1×10^7 cells to suspend the cells. After being allowed to stand on ice for 15 minutes, the cell suspension was diluted with MACS Buffer (2 mL) and centrifuged (at room temperature at 300 g for 10 minutes) to remove the supernatant. MACS Buffer (500 μL) was added to the tube, and the cells were suspended and then applied to a separatory column to separate CD4^− cells (a pass-through fraction of CD4^+ cells). The CD4^− cell fraction was diluted to 15 mL with the medium and then centrifuged (at room temperature at 300 g for 10 minutes) to remove the supernatant, and the cells were then suspended again in the medium (1 mL), followed by counting the number of viable cells. […]
(§5) The collected culture supernatants were quantified for IFN-γ and IL-6 using Human IFN-γ DuoSet ELISA and Human IL-6 DuoSet ELISA.

[7] = tested on: IL-18 production from LPS-pretreated CD14^+ cells; test: ATP stimulation-induced IL-18 production from LPS-pretreated CD14^+ cells; assay type: cell-based, human; details: for IC50: Homo sapiens, CD14^+ cells (LPS-pretreated), ATP 5 mM
Description: as §3, with “suspended again” for “suspended”, “followed by counting” for “a portion of which was then mixed with a trypan blue solution to count”, “Buffer” for “Buffer in a volume of 80 μL per 1×10^7 cells”, “CD14” for “CD8”, “MicroBeads” for “MicroBeads (20 μL)”, “Buffer” for “Buffer (2 mL)”
as §4, with “Buffer” for “Buffer (500 μL)”, “CD14^+” for “CD8^+”, “diluted” for “diluted to 15 mL”, “2×10^6” for “1×10^6”, “plate” for “plate in a volume of 100 μL/well”, “hours. […] The cells were then stimulated with LPS (final concentration: 500 ng/mL) for 6 hours at 37° C. and an ATP solution (final concentration: 5 mM) was added thereto, and the 96-well plate was further allowed to stand in a CO2 incubator for 2 hours to collect the culture supernatants.” for “hours.”
The collected culture supernatants were quantified for IL-18 using Human IL-18 DuoSet ELISA.

[8] = tested on: IL-6 production in CD4^+ T cell-depleted PBMCs; test: T-cell stimulation bead- and LPS stimulation-induced CRS toxicity evaluation system in CD4^+ T cell-depleted PBMCs: IL-6; assay type: cell-based, human; details: for IC50: Homo sapiens, 72 h, 3 days
Description: Cryopreserved human PBMCs were quickly thawed in a 37° C. thermostat and added to a tube containing medium. After centrifugation (at room temperature at 300 g for 10 minutes) to remove the supernatant, the cells were suspended again in the medium (10 mL), followed by counting the number of viable cells. The remainder of the cell suspension was centrifuged (at room temperature at 300 g for 10 minutes) to remove the supernatant, followed by addition of MACS Buffer in a volume of 80 μL and Human CD4 MicroBeads in a volume of 20 μL per 1×10^7 cells to suspend the cells. After being allowed to stand on ice for 15 minutes, the cell suspension was diluted with MACS Buffer (2 mL) and centrifuged (at room temperature at 300 g for 10 minutes) to remove the supernatant. MACS Buffer (500 μL) was added to the tube, and the cells were suspended and then applied to a separatory column to separate CD4^− cells (a pass-through fraction of CD4^+ cells). The CD4^− cell fraction was diluted to 15 mL with the medium and then centrifuged (at room temperature at 300 g for 10 minutes) to remove the supernatant, and the cells were then suspended again in the medium (1 mL), followed by counting the number of viable cells. The cell suspension adjusted with the medium to 1×10^6 cells/mL was seeded in a 96-well plate in a volume of 100 μl/well (1×10^5 cells/well) and allowed to stand in a CO2 incubator for 1 to 2 hours.
as §5

[9] = tested on: TNF-α production in PBMCs; test: LPS stimulation-induced TNF-α production in PBMCs; assay type: cell-based; details: Homo sapiens, PBMC
Description: as §2
The culture supernatants collected in 1.2.2 were quantified for TNF-α using Human TNF-α DuoSet ELISA.

| Compound | IC50 [1] [nM] | IC50 [2] [nM] | IC50 [3] [nM] | IC50 ([4]; Homo sapiens, T-cell, 72 h) [nM] | IC50 [5] [nM] | IC50 [6] [nM] | IC50 [7] [nM] | Ratio (IL-6/IFN-γ) of IC50 values ([8]; CD3/CD28 + LPS) | IC50 ([8]; CD3/CD28 + LPS) [nM] | IC50 [9] [nM] | suppressive effect on IL-8 production ([2]; CRS toxicity evaluation system using CAR-T cells) | IC50 [4] [nM] | suppressive effect on IL-18 production ([7]; LPS-pretreated CD14^+ cells, ATP) | suppression of IL-6 production ([8]; T-cell stimulation beads and LPS) |
| --- | --- | --- | --- | --- | --- | --- | --- | --- | --- | --- | --- | --- | --- | --- |
| CCOC(=O)[C@H](Cc1ccccc1)NC(=O)c1cc(Cl)c(OCCN2CCN(C)CC2)c(Cl)c1O [JTE-607, (−)-ethyl N-{3,5-dichloro-2-hydroxy-4-[2-(4-methylpiperazin-1-yl)ethoxy]benzoyl}-L-phenylalaninate dihydrochloride] | 598 | 154 | 17.7 | > 300 | 37.6 | 80.9 | 2.4 | 0.52 | 42.2 | 30.7 |  |  |  |  |
| C[C@]12C=CC(=O)C=C1CC[C@@H]1[C@@H]2[C@@H](O)C[C@@]2(C)[C@H]1CC[C@]2(O)C(=O)CO [PSL, Prednisolone] | 880 | > 100000 | 176 | 149 | 71800 | 42 | > 30000 |  | > 30000 | 73 | no suppressive effect | 149 | no suppressive effect | did not suppress |
